According to US9717727B2, “Methods of treating and preventing leukemia and other cancers of the blood and bone” (The Trustees of Columbia University in the City of New York, priority 2011, dated 2017):
Like-named read-outs stand apart in the source and are kept apart here.

Experiments:
[1] = tested on: WEHI/3B myelomonocytic leukemia cell line; test: WEHI/3B murine model of AML, tumor burden at tissue level (Example 12); type: in vivo, mice
Procedure: WEHI/3B, a macrophage-like myelomonocytic leukemia cell line established from inbred BALB/c mice, was used. BALB/cJ mice were inoculated with 1×10^6 Wehi-3 cells.
Mice were sacrificed at pre-determined time points as specified before or upon signs of illness. Each animal was weighed before blood was sampled, and visually examined for tumor development. Spleens were isolated and weighed. Spleens and tissue samples from liver were fixed in 10% neutral formalin solution for 48 hours. Osseous samples (thoracic spine, sternum, pelvis, and stifle joint) were decalcified in Decalcifier System I (Leica Microsystems, Inc.) for 48 h after fixation. All tissues were processed by routine methods and embedded in paraffin Sections of 4 or 5 μm were stained with hematoxylin and eosin (H&E) according to standard procedures.
Histomorphometric analyses were performed on vertebral column specimens collected from 2 months old mice using undecalcified sections using the osteomeasure analysis system (Osteometrics). Lumbar vertebrae were dissected, fixed for 24 hours in 10% formalin, dehydrated in graded ethanol series, and embedded in methyl methacrylate resin according to standard protocols (Chappard et al. (1987); Parfitt et al. (1987)).
Bone formation rate (BFR) was analyzed by the calcein double-labeling method. Calcein (Sigma) was dissolved in calcein buffer (0.15 M NaCl, 2% NaHCO3) and administered by an intraperitoneal injection of 25 μg/g body weight, 6 days and 2 days before sacrificing the animals. In experiments evaluating survival rates of animals, bone formation rate was not calculated due to the unknown time of death. Unstained 4-μm sections were used for BFR measurements.
For the analysis of parameters of osteoblast and osteoclast, 4-μm sections were stained with toluidine blue and tartrate-resistant acid phosphatase (TRAP), respectively. Type I collagen content and bone volume over trabecular volume (BV/TV) were analyzed using 7-μm sections by Von Gieson and Von Kossa staining […] respectively in undecalcified sections. Images were taken using a 10× objective on a Leica microscope outfitted with camera. Six to ten animals were analyzed for each group.
Total RNA was isolated from tissues or cultured cells using Trizol, according to the manufacturer's protocol (Invitrogen). Total RNA (2 μg) was treated with DNAse I (Invitrogen), and reverse transcribed at 42° C. with SuperScript II (Invitrogen). The expression of all the genes was measured by real-time quantitative PCR with the SYBR Green Master Mix (Bio-Rad) using β actin or 18s as endogenous control.
BALB/cJ mice purchased from Jackson Laboratory and injected with WEHI/3B, as described in Example 2, were used.
Mice were treated as described in Example 9 and classified as: • Mice with no leukemia treated with a vehicle, i.e., non-leukemic-vehicle-treated (“WT”); • Mice with no leukemia treated with LP-533401, i.e., non-leukemic-LP-533401-treated (“NL-LP”); • Mice with leukemia treated with a vehicle, i.e., leukemic-vehicle-treated (“Leuk-veh”); and • Mice with leukemia treated with LP-533401, i.e., leukemic-LP 533410-treated (“Leuk-LP”).
All mice were sacrificed after 2 weeks for the following assessments: • Serum serotonin levels as measured in Example 9; • Body weight as described in Example 2 • Spleen weight as described in Example 2; • Histological analysis of the femur, spleen and liver as described in Example 2; • Trabecular Bone Volume (Bv/TV) as described in Example 3; • and • Gene Expression analysis by PCR as described in Example 3. Results

[2] = tested on: serotonin; conditions: six consecutive doses, cited from earlier work
[3] = tested on: EL4 cells; test: EL4 leukemia mouse model, all mice sacrificed at day 15 (Example 10); type: in vivo
Procedure: Mice were sacrificed at pre-determined time points as specified before or upon signs of illness. Each animal was weighed before blood was sampled, and visually examined for tumor development. Spleens were isolated and weighed. Spleens and tissue samples from liver were fixed in 10% neutral formalin solution for 48 hours. Osseous samples (thoracic spine, sternum, pelvis, and stifle joint) were decalcified in Decalcifier System I (Leica Microsystems, Inc.) for 48 h after fixation. All tissues were processed by routine methods and embedded in paraffin Sections of 4 or 5 μm were stained with hematoxylin and eosin (H&E) according to standard procedures. Luciferase intensity was measured by plating 4.5 million bone marrow cells into 6-well plates. Luciferin was added at a final concentration of 150 μg/mL and luciferase activity was measured at a luminometer. Mice were treated orally with LP-533401 (25 or 200 mg per kg of body weight per day) or vehicle. Treatments started 15 days before malignant cell injections in all sets of experiments, and continued for the indicated periods of time. LP-533401 was dissolved in polyethylene glycol (PEG) and 5% dextrose or 2.5% glucose (Sigma), and given daily by oral gavage. Mice treated with vehicle were administered, in the same way as LP533401, a solution of PEG and 5% dextrose or 2.5% glucose, daily, by oral gavage. The same mice and techniques used in Example 9 were used in this Example, except all of the mice were sacrificed at day 15 following EL4 cell injection

[4] = tested on: EL4 cells; test: Injection of EL4 cells pre-treated with LP-533401 or serotonin into syngeneic mice (Example 13); type: in vivo; conditions: cells treated before injection; LP-533401 0.1 to 1-fold serum concentration, serotonin 25 to 100 μM
Procedure: EL4 cells and WEH-3B cells, as described in Example 2, were treated with either LP-533401 or serotonin LP-533401 treatments were performed at 0.1 to 1-fold the amount equivalent to the LP-533401 serum concentration in mice treated with this compound. Serotonin was given at concentrations ranging from 25 to 100 μM, doses at which it affects the proliferation of cells expressing serotonin receptors (Kode et al. (2012); Yadav et al. (2008) Serafeim et al. (2003)).
EL4 cells treated with LP-533401 or serotonin were then injected into syngeneic mice as described in Example 2 to monitor leukemia engraftment, as commonly described for evaluating potential direct effects of compounds on leukemia cells (Moellering et al. (2009)).

[5] = tested on: bone loss; conditions: in vivo; cited from earlier work
[6] = among 14 mice treated (WEHI/3B)

Nc1nc(OC(c2ccc(-c3cccc(F)c3)cc2)C(F)(F)F)cc(-c2ccc(C[C@H](N)C(=O)O)cc2)n1 (some centres unmarked) [LP-533401]
anemia observed in leukemic mice ([1]; WEHI/3B): inhibited
leukemia infiltration in the liver and spleen ([1]; WEHI/3B): limited leukemia infiltration in the liver and spleen
leukemia-caused decrease in trabecular bone volume, osteoblast numbers and bone formation rate ([1]; WEHI/3B): prevented the decrease
leukemic mice in which megakaryocyte numbers returned to normal ([1]; WEHI/3B): 70%
leukemic mice with normal myeloid:erythroid ratio ([1]; WEHI/3B): 50%
number of leukemia blasts (histology) ([1]; WEHI/3B): reduced number of leukemia blasts
osteoclast numbers ([1]; WEHI/3B): not affected
mice with less than 5% marrow blasts [1, 6]: 71%
number of mice with less than 5% marrow blasts [1, 6]: 10
expression of osteoblast differentiating genes (osteocalcin, osterix, Runx2, alkaline phosphatase, collagen 1a1) ([1]; femur of leukemic mice (WEHI/3B), PCR): normalize the expression
cyclin D1 and D2 expression in bone (osteoblast proliferation) ([1]; leukemic mice (WEHI/3B)): increase in cyclin D1 and D2 expression
enlargement of the spleen (spleen weight) ([1]; leukemic mice (WEHI/3B)): alleviated
splenic red pulp ([1]; leukemic mice (WEHI/3B)): normal
animals with a blast percentage of 20% or more in the bone marrow ([1]; leukemic mice (WEHI/3B), 2 weeks): 28%
body weight ([1]; leukemic vs non-leukemic animals (WEHI/3B)): weight loss was not observed
serotonin levels in the small intestine lowered ([2]; 30 mg/kg twice per day): 55%
serotonin levels in the small intestine lowered ([2]; 90 mg/kg twice per day): 70%
brain-derived serotonin ([2]; 30 or 90 mg/kg twice per day): unchanged
leukemic infiltration in the marrow (histology) ([3]; day 15): reduced leukemic infiltration
leukemic mice with 20 to 40% blasts in the bone marrow ([3]; day 15): 40%
leukemic mice with increased megakaryocyte number ([3]; day 15): 20%
leukemic mice with less than 20% of blasts in the bone marrow ([3]; day 15): 40%
leukemic mice with more than 80% blasts in the bone marrow ([3]; day 15): 20%
leukemia-induced changes in WBCs, monocytes, neutrophils and lymphocytes ([3]; day 15, leukemic mice): all prevented
liver leukemic involvement ([3]; day 15, leukemic mice): normal or only small size focal infiltrates
myeloid hyperplasia ([3]; day 15, leukemic mice): Mild myeloid hyperplasia
prevalence of immature lymphoblastic cells in the blood compared to healthy controls ([3]; day 15, leukemic mice): did not show an increase
EL4 tumor burden ([3]; day 15, whole body and bone marrow): decreased in whole body and in the bone marrow
leukemia-caused decrease in bone volume, osteoblast numbers and bone formation rate ([3]; day 15 after EL4 injection): ameliorated
osteoclast numbers ([3]; day 15 after EL4 injection): Neither injection with EL4 cells nor treatment with LP-533401 affected osteoclast numbers
leukemia outcome (burden and lethality) after injection of pre-treated EL4 cells [4]: neither of the two treatments altered leukemia outcome
effect against bone loss [5]: effective against bone loss
